This assay addresses T1, Beta-galactosidase (Aspergillus niger) (UniProt P29853).
T1 sequence (whole entry): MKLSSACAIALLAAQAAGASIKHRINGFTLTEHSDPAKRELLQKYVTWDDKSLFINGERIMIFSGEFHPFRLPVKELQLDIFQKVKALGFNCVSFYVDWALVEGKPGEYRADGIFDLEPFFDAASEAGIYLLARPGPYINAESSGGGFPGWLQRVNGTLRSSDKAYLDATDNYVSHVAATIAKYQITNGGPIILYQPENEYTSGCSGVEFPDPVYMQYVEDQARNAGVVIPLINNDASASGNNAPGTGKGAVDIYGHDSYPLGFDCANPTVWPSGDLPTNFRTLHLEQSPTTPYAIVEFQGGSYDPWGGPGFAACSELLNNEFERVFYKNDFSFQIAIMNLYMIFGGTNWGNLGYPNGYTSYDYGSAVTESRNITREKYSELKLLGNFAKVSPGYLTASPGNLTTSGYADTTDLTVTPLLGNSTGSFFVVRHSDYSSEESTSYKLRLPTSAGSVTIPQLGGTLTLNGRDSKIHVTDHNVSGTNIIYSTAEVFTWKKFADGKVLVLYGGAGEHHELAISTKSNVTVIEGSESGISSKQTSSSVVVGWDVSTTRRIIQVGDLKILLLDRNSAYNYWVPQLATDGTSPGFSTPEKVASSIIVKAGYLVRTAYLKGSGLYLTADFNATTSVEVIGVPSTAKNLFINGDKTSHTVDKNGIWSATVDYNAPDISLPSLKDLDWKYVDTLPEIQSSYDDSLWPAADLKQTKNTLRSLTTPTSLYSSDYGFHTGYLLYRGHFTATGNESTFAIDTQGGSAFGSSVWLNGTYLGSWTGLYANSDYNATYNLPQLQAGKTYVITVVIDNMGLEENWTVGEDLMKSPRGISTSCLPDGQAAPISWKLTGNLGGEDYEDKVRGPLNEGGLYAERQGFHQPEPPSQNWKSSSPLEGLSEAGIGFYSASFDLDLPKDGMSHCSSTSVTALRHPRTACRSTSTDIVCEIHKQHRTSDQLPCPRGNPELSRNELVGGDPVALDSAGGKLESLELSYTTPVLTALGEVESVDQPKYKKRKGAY
The experiment in a line: Percentage inhibition of Beta-galactosidase from Aspergillus niger at 1 mM concentration; […].

Calls of active or inactive are those of the source. The calls are words filed in the database; no cut-off is given here.

As to `OC1CNC(CNCC2CCN(Cc3ccccc3)CC2)C1O` (stereo unspecified), the inhibition entry is “inactive”.

(Values after ChEMBL document CHEMBL1133958, “Derivatives of (2R,3R,4S)-2-aminomethylpyrrolidine-3,4-diol are selective alpha-mannosidase inhibitors” (Bioorg Med Chem Lett, 2001).)
